Test: Composite organic content by thermogravimetry
Format: physicochemical
Conditions: for Weight losses (single cell, temperature range not attributable): pure organic reference, one cell only; for Weight losses Between 0 and 200° C. under N2 / Weight losses Between 200 et 600° C. under N2 / Weight losses Between 600 et 800° C. under Air: thermogravimetry, dry material
Protocol: Dry material sample were submitted to thermogravimetry. Weight losses from RT to 600° C. under N2 and from 600° C. to 800° C. under O2 were recorded and represent by difference the quantity of burned organic material.

O=C(O)CCCCC(=O)O [Adipic acid]
Weight losses (single cell, temperature range not attributable): 100%

O=c1[nH]cnc2nc[nH]c12 [Hypoxanthine]
Weight losses Between 0 and 200° C. under N2: 0.2% | Weight losses Between 200 et 600° C. under N2: 50.6% | Weight losses Between 600 et 800° C. under Air: 49.2%

Cc1c[nH]c(=O)[nH]c1=O [Thymine]
Weight losses (single cell, temperature range not attributable): 100%

O=c1[nH]c(=O)c2[nH]c(=O)[nH]c2[nH]1 [Uric acid]
Weight losses Between 0 and 200° C. under N2: 0.1% | Weight losses Between 200 et 600° C. under N2: 74.6% | Weight losses Between 600 et 800° C. under Air: 25.3%
